According to publication PMC7285002, “Enhanced Oral Bioavailability of the Pharmacologically Active Lignin Magnolol via Zr-Based Metal Organic Framework Impregnation” (Pharmaceutics, 2020):
Like-named read-outs stand apart in the source and are kept apart here.

How the values were obtained:
[1] = test system: female Sprague Dawley rats; experiment: Acute oral toxicity (OECD 425, limit test); format: in vivo
Experimental: Animal toxicity test was done in accordance with the Organization for Economic Cooperation and Development guidelines for testing chemical compounds using the up and down method (OECD procedure 425). Prior to dosing, 2 mL of blood was extracted through tail clipping and was submitted for alanine aminotransferase (ALT) and creatinine level determinations for signs of liver and kidney damages, respectively. […] In cases where the first animal survived, an additional four rats were subjected to the same dose. […] An additional rat was administered with the solvent only to compare the variation in the animal species. Test animals that survived in the 14-day observation were euthanized in a carbon dioxide chamber followed by the harvesting of blood, liver and kidney of all test animals. The blood was once again submitted for ALT and creatinine level determination. The organs were submitted for tissue mounting and histopathological evaluation.

[2] = Oral bioavailability / pharmacokinetic study (serum magnolol by HPLC); format: in vivo; conditions: Sprague-Dawley (SD), rat, 100 mg kg^−1, male SD rats; for AUC(0-t): read-out: AUC0–720 (converted); for half-life: male, 100 mg/kg
Experimental: (§1) The determination of the bioavailability of magnolol and its tissue distribution to the brain, liver, and kidney was done according to the method of Ding et al. (2018), Higashi (2015), Lin et al. (2011), and Kotani et al. (2005).
For the pharmacokinetic study, male SD rats were randomly divided into 4 groups (n = 3). […] Blood samples (approximately 200 to 250 µL) were collected at predetermined time points (15, 30, 60, 120, 180, 240, 480, and 720 min) and allowed to clot and centrifuged at 4000 rpm at 4 °C for 5 min to obtain the serum. The obtained sera were treated with equal amount of acetonitrile and then centrifuged again to obtain the protein-free sera.
(§2) Samples were reconstituted with acetonitrile prior to HPLC analysis. The samples were injected into the HPLC (n = 3). The quantity of magnolol was computed using a standard calibration curve.

[3] = low bioavailability of magnolol, stated in the abstract without reference; cited from earlier work
[4] = Tissue distribution of unconjugated magnolol; format: in vivo; conditions: Sprague-Dawley (SD), rat, 1 h after oral 50 mg kg^−1, male SD rats
Experimental: as §1
After one hour of administration, the animals were euthanized in a carbon dioxide chamber and their organs (brain, liver, and kidney) were collected. The organs were weighed and homogenized in 10 mL of acetonitrile, and centrifuged at 10,000 rpm for 10 min. The supernatant was dried under reduced pressure.
as §2

C=CCc1ccc(O)c(-c2cc(CC=C)ccc2O)c1 [Magnolol, 4-Allyl-2-(5-allyl-2-hydroxy-phenyl)phenol]
survival after limit dose ([1]; 2000 mg kg^−1 oral, female SD rats, 14 days): All test animals survived
mean serum ALT level, before vs after administration ([1]; 2000 mg kg^−1 oral, paired t-test): no significant difference
median lethal dose (LD50) ([1]; oral gavage, female SD rats, 14-day observation, assumed from limit test): greater than 2000 mg kg^−1
AUC(0-inf) ([2]; IP (intraperitoneal route)): 66900 ng·h/mL
Cmax ([2]; IP (intraperitoneal route)): 5100 ± 650 ng/mL
Tmax ([2]; IP (intraperitoneal route)): 64.1 min
AUC(0-t) ([2]; IP (intraperitoneal route)): 43000 ng·h/mL
AUC(0-inf) ([2]; PO (oral route)): 15100 ng·h/mL
Cmax ([2]; PO (oral route)): 2570 ± 260 ng/mL
Tmax ([2]; PO (oral route)): 55.8 min
AUC(0-t) ([2]; PO (oral route)): 13700 ng·h/mL
half-life ([2]; ip, IP (intraperitoneal route), read-out: Abs T1/2 (absorption half-life)): 17.1 ± 3.63 min
half-life ([2]; ip, IP (intraperitoneal route), read-out: T1/2 (elimination half-life)): 461 ± 37.4 min
half-life ([2]; po, PO (oral route), read-out: Abs T1/2 (absorption half-life)): 23.3 ± 3.16 min
half-life ([2]; po, PO (oral route), read-out: T1/2 (elimination half-life)): 100 ± 20.4 min
bioavailability [3]: 4–5%
concentration at 1 h ([4]; brain, read-out: mean magnolol concentration, Brain): 374 ± 22 ng/g
concentration at 1 h ([4]; kidney, read-out: mean magnolol concentration, Kidneys): 3740 ± 890 ng/g
concentration at 1 h ([4]; liver, read-out: mean magnolol concentration, Liver): 790 ± 180 ng/g
